Patent US20230137491A1, “PEPTIDES AND USES THEREOF” (SINTICA BIOTECH SOCIETÀ A RESPONSABILITÀ LIMITATA …, priority 2020, published 2023)
Non-standard residues stand in square brackets, D forms with d. methoxy‑PEG 20 kDa = linear 20 kDa methoxy-PEG conjugated through D-Cys sulfur

Experiments:
[1] = system: melanoma cell lines (WM115, WM266-4, SKmel28, WM793B, 1205Lu); test: MTT assay in melanoma cell lines; type: cell-based, human
Experimental: (§1) 5×10^3 cells/well were seeded in 96-well culture plates. At different time points, cells were incubated with 0.5% MTT (3-(4,5-dimethylthiazol-2-yl)-2,5-diphenyltetrazolium bromide) for 4 h at 37° C. and then dissolved with 100 μl Isopropanol with 0.04N HCl. The plate was read at 560 nm with a reference filter of 650 nm. Results are expressed as viability percentage, as compared to control.
Five melanoma cell lines were used for testing the efficacy of XYZ or its non-PEGylated peptide component: WM115 and WM266-4, which are respectively the primary and metastatic melanoma derived from the same patient and expressing high levels of CD271, and SKme128, a metastatic melanoma cell line expressing low levels of CD271, WM793B, a primary melanoma, and 1205Lu derived from lung metastatic melanoma. The viability of the cell culture is assessed by MTT conversion. MTT solution is applied to the plates and placed into a cell culture incubator for 4 hours. The blue formazan metabolite produced by viable cells is then extracted into isopropanol and absorbance is measured at 570 nm using a spectrophotometer.

[2] = system: WM115 CD271 silenced (siRNA) melanoma cell line; test: MTT assay in CD271-silenced (siRNA) cells; type: cell-based, human; conditions: WM115 transfected with CD271 siRNA
Excerpt: (§2) FIG. 6. The peptide reduces melanoma cell viability through CD271. WM115 melanoma cell line was transiently transfected with CD271 siRNA, as shwon by western blotting. MTT assay was used to measure cell viability after treatment with the peptide (XYZ) or the diluent in siRNA and scramble cells. SKme128 melanoma cell line was transiently transfected with CD271 mRNA, as shown by western blotting. MTT assay was used to measure cell viability after treatment with the peptide (XYZ) or the diluent in siRNA and scramble cells. Student's t-test was used for comparison of the means.
as §1
Melanoma cells were plated in 2D for 24 h in antibiotic free medium. WM115 cell line was then transfected with scrambled or CD271 siRNA (50 nM and 100 nM, respectively) (Dharmacon Inc, Lafayette, Colo., USA) in antibiotic/FBS free medium supplemented with 0.1% BSA and 48 h later cells were seeded for MTT assay or lysed for western blotting.

[3] = system: SKMel28 melanoma cell lines overexpressing CD271; test: MTT assay in cells overexpressing CD271 (CD271 viral vector); type: cell-based, human; conditions: SKMel28 with CD271 viral vector
Excerpt: as §2, §1
Skme128 cell line was plated according to the liquid overlay method. After 24 h, cells were transduced by infection with viral supernatant generated by CD271-LNSN packaging cells or by LNSN packaging cells (kindly provided from F. Mavilio) in appropriate medium for melanoma, as described previously in the presence of polybrene (8 μg/ml). 48 h after infection cells were lysed for WB analysis or seeded for MTT assay.

[4] = system: melanoma cells derived from patient with BRAF mutation in zebrafish; test: Zebrafish xenotransplant with melanoma cells from a patient with BRAF mutation; type: in vivo; conditions: embryos with metastasis counted 5 days post injection, versus control
Experimental: FIG. 11. The peptide reduces initial metastasis formation in zebrafish injected with melanoma cells. Metastatic melanoma cells from a patient with BRAF mutation were treated with the peptide, DTIC, the peptide in combination with DTIC, DTIC alone, BRAF inhibitor or left untreated. They were stained with Vibrant Cell Labelling Solution (red) and injected into the yolk of transparent zebrafish larvae and monitored. The number of embryos with metastasis was counted at 5 days post injection.
The use of melanoma biopsies was approved by the ethical committee (Comitato Etico dell'Area Vasta Emilia Nord). Biopsies were taken from the University Hospital Policlinico of Modena and patient gave inform consent. […]
(§3) Zebrafish handling was performed at the Zebrafish Centre of the University of Padova, Italy, under ethical committee (OPBA) authorization 407/2015-PR. […] Zebrafishes were monitored daily and documented from 1 day post injection (dpi) up to 1 week (experimental endpoint). […]
(§4) For xenotransplantation, albino embryos were mechanically dechorionated at 2 days post-fertilisation, anesthetized with tricaine 0.16 mg/ml and placed along plastic lanes immersed in 2% methylcellulose/PBS. […] Stained cells were loaded in a glass capillary needle and microinjected into the yolk (about 50 cells/embryo), Xenotransplanted embryos were monitored daily and documented from one day post injection up to one week.

[5] = system: SKmel 28 cell line in zebrafish; test: Zebrafish xenotransplant with SKmel28 cell line; type: in vivo; conditions: SKmel28, embryos with metastasis counted 5 days post injection
Experimental: FIG. 12. […] SKMel28 melanoma cell line was treated with XYZ, DTIC, the peptide in combination with DTIC, or left untreated. They were stained with Vibrant Cell Labelling Solution (red) and injected into the yolk of transparent zebrafish larvae and monitored. The number of embryos with metastasis was counted at 5 days post injection.
as §3, with “407/2015-PR. Zebrafish embryos were obtained from natural spawning of albino adults, raised following standard protocols (Westerfield, M et al., 2000) and staged according to Kimmel et al. (1995).” for “407/2015-PR.”
as §4

Ac-DMet-DLeu-Gly-DIle-DIle-DAla-Gly-DLys-DAsn-DSer-Gly-DCys-NH2 with a linear 20 kDa methoxy-PEG polymer conjugated to the D-Cys residue through the sulfur atom of the latter (Ac-[dM][dL]G[dI][dI][dA]G[dK][dN][dS]G[dC](methoxy‑PEG 20 kDa)-NH2) [XYZ]
cell proliferation (MTT assay), dose dependence ([1]; WM115, WM266-4 and SKmel28, different doses and time points): diminishes cell proliferation, as shown by MTT assay, in a dose-dependent manner
cell proliferation (MTT assay) ([1]; five melanoma cell lines, 48 h and 96 h after treatment, no significant difference between PEGylated and non-PEGylated form): reduce cell proliferation
cell viability (MTT assay) in CD271-silenced cells [2]: fails to reduce cell viability
cell death (MTT assay) in CD271-overexpressing cells [3]: induces cell death to a greater extent
metastasis formation in zebrafish [4]: reduces metastasis formation
full metastasis in xenotransplanted zebrafish [5]: reduces full metastasis
